Assay results taken from PMC10914731, “Homo-BacPROTAC-induced degradation of ClpC1 as a strategy against drug-resistant mycobacteria” (Nature Communications, 2024).
Values after ≈ are worked out from the molar mass of the structure shown. Values joined by “and” are separate entries in the source; they are usually repeats but may differ in a detail not shown here. Equal values may be shown once. Read-outs that look alike come from different tables or passages of the source.

Assays:
Mtb ATCC 35825 = experiment: microbe, parasite or virus in culture; assay type: cell-based
Enterococcus faecium = experiment: MIC ESKAPES panel, Enterococcus faecium; assay type: cell-based
Method: (§1) Minimum inhibitory concentration (MIC) against ESKAPES panel of Gram positive and Gram negative pathogens (Enterococcus faecium, Staphylococcus aureus, Klebsiella pneumoniae, Acinetobacter baumannii, Pseudomonas aeruginosa, Enterobacter cloacae and Salmonella typhimurium [ESKAPES panel]) were determined at the FNDR by the standard broth dilution method [CLSI, M100]. […] Mueller Hinton broth (MHB) medium was used to grow ESKAPES panel strains. The individual cultures were added as 200 μL (inoculum of 3–7 × 10^5 cfu/ml) to the respective assay plates in each well to all columns, except the media control (200 μL of medium). […] The assay plates were incubated at 37 °C, and the results were noted on the 2nd day as turbidometric readout. The clear wells indicated inhibition of growth, while the turbid wells indicated uninhibited growth.

Msm 607 = experiment: microbe, parasite or virus in culture; assay type: cell-based
[1] = assay type: in vitro ADME, Human; conditions: human, pH 7.4
[2] = system: Mtb (katG del) ATCC 35822; experiment: microbe, parasite or virus in culture; assay type: cell-based
Mycobacterium abscessus = experiment: microbe, parasite or virus in culture; assay type: cell-based
Mtb # 11291 = experiment: microbe, parasite or virus in culture; assay type: cell-based; conditions: for MIC: read-out: MIC Mtb # 11291
Caco-2 monolayers = experiment: in vitro; conditions: human, Caco-2
Procedure, shortened: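 Values are bidirectional Caco-2 apparent permeabilities, P(A−B) and P(B−A), given in 10^-6 cm s-1. The efflux ratio divides P(B−A) by P(A−B), and intrinsic permeability averages the two directions.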

Mtb # 8673 = experiment: microbe, parasite or virus in culture; assay type: cell-based
Klebsiella pneumoniae = experiment: MIC ESKAPES panel, Klebsiella pneumoniae; assay type: cell-based
Method: as §1

Pseudomonas aeruginosa = experiment: MIC ESKAPES panel, Pseudomonas aeruginosa; assay type: cell-based
Method: as §1

[3] = assay type: in vitro ADME, Mice; conditions: mouse, microsomes, pH 7.5
Procedure, shortened: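 Metabolic depletion in liver microsomes (0.5 mg/ml, 1 mM NADPH, 37 °C) starting from 1 µmol/l test compound, sampled at multiple times with acetonitrile quench. LC-MS/MS quantitation; half-life converted to %Qh.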

[4] = system: M. tuberculosis H37Rv (ATCC 27294); experiment: microbe, parasite or virus in culture; assay type: cell-based
[5] = molecular target: endogenous ClpC1 in Msm #607 cells (Mycolicibacterium smegmatis, UniProt A0R574); assay type: cell-based, M. smegmatis
Chain of endogenous ClpC1 in Msm #607 cells (A0R574 whole entry): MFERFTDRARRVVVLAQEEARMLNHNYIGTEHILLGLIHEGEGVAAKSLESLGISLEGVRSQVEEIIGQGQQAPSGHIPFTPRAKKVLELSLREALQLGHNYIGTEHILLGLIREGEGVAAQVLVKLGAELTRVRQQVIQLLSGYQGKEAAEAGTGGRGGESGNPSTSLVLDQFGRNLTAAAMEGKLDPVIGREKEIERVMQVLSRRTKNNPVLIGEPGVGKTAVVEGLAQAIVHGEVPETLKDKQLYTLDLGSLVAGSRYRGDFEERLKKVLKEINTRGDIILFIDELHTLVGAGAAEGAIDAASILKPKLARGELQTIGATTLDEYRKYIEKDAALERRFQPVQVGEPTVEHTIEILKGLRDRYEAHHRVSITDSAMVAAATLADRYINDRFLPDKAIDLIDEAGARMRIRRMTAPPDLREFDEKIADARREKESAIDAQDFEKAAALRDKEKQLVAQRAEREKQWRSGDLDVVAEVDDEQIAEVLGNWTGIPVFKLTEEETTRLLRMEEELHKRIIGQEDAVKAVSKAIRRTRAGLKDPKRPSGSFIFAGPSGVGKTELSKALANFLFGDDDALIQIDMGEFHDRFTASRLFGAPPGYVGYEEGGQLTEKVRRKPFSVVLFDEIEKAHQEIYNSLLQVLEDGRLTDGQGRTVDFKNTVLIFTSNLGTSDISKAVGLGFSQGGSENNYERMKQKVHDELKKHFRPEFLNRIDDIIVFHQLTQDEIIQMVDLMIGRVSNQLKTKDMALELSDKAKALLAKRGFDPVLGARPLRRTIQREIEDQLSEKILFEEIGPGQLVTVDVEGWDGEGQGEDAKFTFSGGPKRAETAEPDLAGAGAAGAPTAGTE

[6] = single well replicates, listed as 12 (UdSBI-4377)
[7] = Mycobacterium tuberculosis, mean, n = 2 well replicates
[8] = Mycobacterium tuberculosis, single well replicates
[9] = Gram-Negative Bacteria, replicates 1-3, listed as 12 (UdSBI-4377)

**Q.** For `COC(c1ccccc1)C1NC(=O)C(C)NC(=O)C(CC(C)CO)N(C)C(=O)C(Cc2cn(C)c3ccccc23)NC(=O)C(Cc2cn(CCCCCn3cc(CC4NC(=O)C(CC(C)C)N(C)C(=O)C(C(C)C)NC(=O)C(C(OC)c5ccccc5)NC(=O)C(C)NC(=O)C(CC(C)CO)N(C)C(=O)C(Cc5cn(C)c6ccccc56)NC4=O)nn3)nn2)NC(=O)C(CC(C)C)N(C)C(=O)C(C(C)C)NC1=O` (stereo not drawn) [Compound 12], which MIC (Mtb ATCC 35825; Mycobacterium tuberculosis, ATCC35825, mean, n = 2 well replicates) is on record?
**A.** < 0.1 µM and < 0.2 µg/mL

**Q.** What about the MIC (Mtb ATCC 35825; Mycobacterium tuberculosis, ATCC35825, single well replicates) of the same compound?
**A.** < 0.19 µg/mL and < 0.1 µM

**Q.** What about the MIC (Mtb ATCC 35825; [6]) of the same compound?
**A.** <0.1 µM

**Q.** And the “MIC Mtb ATCC 35825” value (Mtb ATCC 35825; [6])?
**A.** <0.19 µg/mL

**Q.** And the MIC (Enterococcus faecium; Enterococcus faecium, Gram positive, n = 3 well replicates)?
**A.** > 50 µM

**Q.** What about the MIC (Enterococcus faecium; Enterococcus faecium, Gram-Positive Bacteria, replicates 1-3) of the same compound?
**A.** > 99 µg/mL

**Q.** And the MIC (Enterococcus faecium; Gram-Positive Bacteria, replicates 1-3, listed as 12 (UdSBI-4377))?
**A.** >50 µM

**Q.** And the MIC (Msm 607; Mycolicibacterium smegmatis, 607, read-out: MIC Msm 607)?
**A.** 0.9 ± 0.3 µM (≈ 1.78 µg/mL)

**Q.** And the MIC (Msm 607; Mycolicibacterium smegmatis, 607, read-out: MIC Msm #607, individual example (Supplementary Table 11))?
**A.** 0.8 µM and 1.5 µg/mL

**Q.** And the MIC (Msm 607; Mycolicibacterium smegmatis, 607, read-out: Msm 607 MIC, single determinations)?
**A.** 1.56 µM (≈ 3.09 µg/mL)

**Q.** What about the MIC (Msm 607; Mycolicibacterium smegmatis, ATCC607, Set-1, read-out: MIC (Msm ATCC607) Set-1) of the same compound?
**A.** 0.78 µM and 1.54 µg/mL

**Q.** And the MIC (Msm 607; Mycolicibacterium smegmatis, ATCC607, Set-2, read-out: MIC (Msm ATCC607) Set-2)?
**A.** 1.54 µM and 3.06 µg/mL

**Q.** And the MIC (Msm 607; Mycolicibacterium smegmatis, ATCC607, Set-3, done at a different day than Set 1 and Set 2, read-out: MIC (Msm ATCC607) Set-3)?
**A.** 0.78 µM and 1.54 µg/mL

**Q.** And the MIC (Msm 607; Mycolicibacterium smegmatis, ATCC607, mean of 3 experiments ± SD, read-out: MIC including standard deviations (Msm ATCC607))?
**A.** 1.03 µM and 2.04 µg/mL

**Q.** What about the “Msm 607 MIC” value (Msm 607; single determinations, listed as 12 (UdSBI-4377)) of the same compound?
**A.** 0.780 µM

**Q.** What about the “Hepatocyte Human” value [1] of the same compound?
**A.** 12 %Qh

**Q.** What about the MIC ([2]; M. tuberculosis ATCC 35822, single well replicates) of the same compound?
**A.** 0.098 µM (≈ 0.194 µg/mL)

**Q.** And the MIC ([2]; Mycobacterium tuberculosis, ATCC35822, M. tuberculosis ATCC 35822, single well replicates)?
**A.** 0.098 µM (≈ 0.194 µg/mL)

**Q.** What about the MIC ([2]; Mycobacterium tuberculosis, ATCC35822, Mtb (katG del) ATCC 35822, mean ± SD, n = 3 well replicates) of the same compound?
**A.** 0.1 µM (≈ 0.198 µg/mL)

**Q.** What about the “MIC (µg/ml) Mycobacterium abscessus” value (Mycobacterium abscessus; Experiment 2, three replicate columns) of the same compound?
**A.** >99.02 µg/mL

**Q.** And the MIC (Mycobacterium abscessus; Experiment 2, three replicate columns, read-out: MIC (µM) Mycobacterium abscessus)?
**A.** >50 µM

**Q.** What about the MIC (Mycobacterium abscessus; Mycobacteroides abscessus, Experiment 1, read-out: MIC Mycobacterium abscessus) of the same compound?
**A.** > 50 µM and > 99 µg/mL

**Q.** And the MIC (Mycobacterium abscessus; Mycobacteroides abscessus, Experiment 2, three replicate columns, read-out: MIC (µM) Mycobacterium abscessus)?
**A.** > 50 µM

**Q.** And the MIC (Mycobacterium abscessus; Mycobacteroides abscessus, Experiment 2, three replicate columns, read-out: MIC (µg/ml) Mycobacterium abscessus)?
**A.** > 99 µg/mL

**Q.** And the MIC (Mycobacterium abscessus; Mycobacteroides abscessus, mean ± SD, read-out: MIC Mycobacterium abscessus)?
**A.** > 50 µM

**Q.** And the MIC (Mtb # 11291; [7])?
**A.** < 0.1 µM and < 0.2 µg/mL

**Q.** And the MIC (Mtb # 11291; [8])?
**A.** < 0.1 µM and < 0.19 µg/mL

**Q.** What about the “MIC Mtb # 11291” value (Mtb # 11291; [6]) of the same compound?
**A.** <0.19 µg/mL

**Q.** And the MIC (Mtb # 11291; [6])?
**A.** <0.1 µM

**Q.** And the “CACO permeability PEAB” value (Caco-2 monolayers)?
**A.** 0.73 ×10⁻⁶ cm/s

**Q.** What about the “CACO permeability PEBA” value (Caco-2 monolayers) of the same compound?
**A.** 0.25 ×10⁻⁶ cm/s

**Q.** What about the “Caco-2 Efflux ratio” value (Caco-2 monolayers) of the same compound?
**A.** 0.3

**Q.** And the “Caco-2 Int. Perm” value (Caco-2 monolayers)?
**A.** 0.5

**Q.** What about the “Caco-2 permeability P (A-B)” value (Caco-2 monolayers) of the same compound?
**A.** 0.7

**Q.** What about the “Caco-2 permeability P (B-A)” value (Caco-2 monolayers) of the same compound?
**A.** 0.2

**Q.** And the MIC (Mtb # 8673; [7])?
**A.** < 0.1 µM and < 0.2 µg/mL

**Q.** And the MIC (Mtb # 8673; [8])?
**A.** < 0.1 µM and < 0.19 µg/mL

**Q.** What about the MIC (Mtb # 8673; [6]) of the same compound?
**A.** <0.1 µM

**Q.** What about the “MIC Mtb # 8673” value (Mtb # 8673; [6]) of the same compound?
**A.** <0.19 µg/mL

**Q.** And the MIC (Klebsiella pneumoniae; [9])?
**A.** >50 µM

**Q.** And the MIC (Klebsiella pneumoniae; Klebsiella pneumoniae, Gram negative, n = 3 well replicates)?
**A.** > 50 µM

**Q.** What about the MIC (Klebsiella pneumoniae; Klebsiella pneumoniae, Gram-Negative Bacteria, replicates 1-3) of the same compound?
**A.** > 99 µg/mL

**Q.** What about the MIC (Pseudomonas aeruginosa; [9]) of the same compound?
**A.** >50 µM

**Q.** What about the MIC (Pseudomonas aeruginosa; Pseudomonas aeruginosa, Gram negative, n = 3 well replicates) of the same compound?
**A.** > 50 µM

**Q.** And the MIC (Pseudomonas aeruginosa; Pseudomonas aeruginosa, Gram-Negative Bacteria, replicates 1-3)?
**A.** > 99 µg/mL

**Q.** What about the “Microsomal Stability Mice” value [3] of the same compound?
**A.** < 24 %Qh

**Q.** And the “Microsomal Stability Mouse QH” value [3]?
**A.** <24.2%

**Q.** And the MIC ([4]; M. tuberculosis H37Rv 27294, single well replicates, read-out: MIC)?
**A.** 0.098 µM (≈ 0.194 µg/mL)

**Q.** What about the MIC ([4]; Mycobacterium tuberculosis, M. tuberculosis H37Rv 27294, single well replicates, read-out: MIC) of the same compound?
**A.** 0.098 µM (≈ 0.194 µg/mL)

**Q.** And the MIC ([4]; Mycobacterium tuberculosis, M. tuberculosis H37Rv strain, read-out: MIC Mtb H37Rv Mean ± SD)?
**A.** 0.1 µM (≈ 0.198 µg/mL)

**Q.** What about the MIC ([4]; Mycobacterium tuberculosis, Mtb H37Rv (Supplementary Table 2), read-out: MIC Mtb) of the same compound?
**A.** 0.1 µM (≈ 0.198 µg/mL)

**Q.** What about the MIC ([4]; Mycobacterium tuberculosis, Mtb H37Rv, mean ± SD, n = 3 well replicates, read-out: MIC) of the same compound?
**A.** 0.1 µM (≈ 0.198 µg/mL)

**Q.** And the MIC ([4]; Mycobacterium tuberculosis, Set 1, read-out: MIC (Mtb H37Rv) Set 1)?
**A.** 0.05 µM and 0.095 µg/mL

**Q.** What about the MIC ([4]; Mycobacterium tuberculosis, Set 2, read-out: MIC (Mtb H37Rv) Set 2) of the same compound?
**A.** 0.05 µM and 0.095 µg/mL

**Q.** And the MIC ([4]; Mycobacterium tuberculosis, Set 3, done at a different day than Set 1 and Set 2, read-out: MIC (Mtb H37Rv) Set 3)?
**A.** 0.05 µM and 0.095 µg/mL

**Q.** And the MIC ([4]; Mycobacterium tuberculosis, individual example (Supplementary Table 11), read-out: MIC Mtb H37Rv)?
**A.** 0.05 µM and 0.1 µg/mL

**Q.** What about the MIC ([4]; Mycobacterium tuberculosis, individual measurements (source data), read-out: Mtb MIC) of the same compound?
**A.** 0.097 µM (≈ 0.192 µg/mL)

**Q.** What about the MIC ([4]; Mycobacterium tuberculosis, mean of 3 experiments +/- SD, unit taken from the sets above in the same table, read-out: MIC data (Mtb H37Rv) (+/- SD)) of the same compound?
**A.** 0.05 µM and 0.1 µg/mL

**Q.** And the MIC ([4]; Mycobacterium tuberculosis, single determinations, read-out: Mtb MIC)?
**A.** 0.097 µM (≈ 0.192 µg/mL)

**Q.** And the MIC ([4]; Mycobacterium tuberculosis, value of the earlier manuscript version quoted in the peer review file, read-out: inhibition of the Mtb growth (MIC))?
**A.** 0.097 µM (≈ 0.192 µg/mL)

**Q.** And the MIC ([4]; individual measurements (source data), read-out: Mtb MIC)?
**A.** 0.097 µM (≈ 0.192 µg/mL)

**Q.** And the DC50 ([5]; read-out: DC50, Mean)?
**A.** 170 nM

**Q.** And the DC50 ([5]; read-out: average DC50, endogenous ClpC1 degradation)?
**A.** 170 ± 100 nM
